Results published in patent US4599325A, “Substituted tyrosyl alanine dipeptide amides” (G. D. Searle & Co., priority 1985, dated 1986).

Tests used:
opiate receptors = assay: Opiate binding assay (displacement of 3H-Naloxone); set-up: species or system rat; details: Table 1, 3H-Naloxone, rat brain membranes
Protocol: The test compounds were evaluated for their ability to displace the binding of ^3 H-Naloxone to opiate receptors isolate from rat brain. Male rats [COBS CD(SD)BR] obtained from Charles River Laboratories (Portage, MI) were sacrificed by cervical dislocation. A purified homogenate of receptor membranes was prepared from the brains according to the method described by Chang and Cuatrecasas. (K.-J. Chang and P. Cuatrecases. Multiple Opiate Receptors: Enkephalins And Morphine Bind To Receptors Of Different Specificity. J. Biol. Chem. 254, 2610-2618 (1979).) The brains were homogenized in 10 volumes of 0.32M sucrose and centrifuged twice at 6,000×g for 15 minutes. Following centrifugation of the supernatants at 40,000×g for 30 minutes, the pellets were allowed to swell, then centrifuged at 6,000 and 40,000×g. This process was repeated. The final pellet was resuspended in 2 volumes of 50 mM tris HCl (pH 7.4). The homogenate was assayed for protein content according to the method of Itzhaki and Gill. R. F. Itzhaki and D. M. Gill. A Micro-Biuret Method for Estimating Proteins. Anal. Biochem. 9, […] (1964).
The binding of the test compounds to the receptor membrane preparation was measured using a modification of the method of Pert and Snyder. C. B. Pert and S. H. Snyder. Properties of Opiate-Receptor Binding in Rat Brain. Proc. Natl. Acad. Sci. 70, 2243-2247 (1973). The receptor assay was run using 1 nM ^3 H-Naloxone and 2 ml of tissue homogenate (0.5 mg/ml protein concentration). Levorphanol (1×10^-5 M) was used as the displacer for non-specific binding. Both the displacer and the test compounds were added in 0.02 ml volumes. The assay was run in 0.05M tris HCl (pH 7.4) ±100 mM NaCl. Total assay volume was 2.03 ml.
Samples were incubated at 25° C. for 60 min., cooled on ice 5 min. and subsequently filtered over Whatman GF/C glass fiber filters with 2.4 ml washes of cold buffer. The filters were then solubilized in 1 ml of NCS at 50° C. for 1 hour. After solubilization, the pH was adjusted with 0.1 ml of glacial acetic acid, 10 ml of PCS was added and the samples were counted in a Nuclear Chicago Mark II liquid scintillation counter. This method was used for the following test compounds: Example 4, Example 5, Example 27, Example 28, Example 38, Example 39, and the prior art compound (4).
A modification of this method was used for the following test compounds: Example 16, Example 17, Example 21, Example 22, Example 24, Example 30, Example 31. In this modification, the total assay volume was adjusted to 1.0 ml. Samples were cooled on ice for 10 minutes and dried at 50° C. for 30 minutes, then 10 mls of PCS was added and the samples counted in a liquid scinitillation counter.
The IC50 values, the concentration of the test compounds which inhibited ^3 H-Naloxone specific binding to the opiate receptor by 50%, were obtained from log-probit plots of concentration-response curves. D. J. Finney. Probit Analysis. Cambridge University Press, London, 1947.

mice = assay: Writhing assay (phenylbenzoquinone); assay type: in vivo, mouse; set-up: key to Writhing Mouse Subc., effect of the screening dose / Writhing Mouse Oral, effect of the screening dose: Active: The test compound was rated active if writhing was inhibited (as described) in 5 of 10 mice; details: Table 1; for Writhing Mouse Oral, effect of the screening dose: screening dose 10 mg/kg p.o.; for Writhing Mouse Subc., effect of the screening dose: screening dose 10 mg/kg s.c.
Protocol: Male Charles River albino mice (CD-1/HAM/1LR) weighing between 20 and 30 grams were used. Thirty minutes after subcutaneous or intragastric administration of the test compound (0.1 ml/10 gram body weight), 0.025% (w/v) phenylbenzoquinone was injected intraperitoneally (0.1 ml/10 gram body weight). Five minutes later, each mouse was placed in a large glass beaker and the number of writhes that occurred in the subsequent ten minutes is counted. A writhe consisted of dorsoflexion of the back, extension of the hindlimbs, and strong contraction of the abdominal musculature. The test compound was considered to have produced analgesia in a mouse if the number of writhes elicited by phenylbenzoquinone was equal to or less than one-half the median number of writhes recorded for the saline-treated group that day. The results were expressed as the number of mice (out of a possible ten) in which the test compound produced analgesia. The test compound was rated active if writhing was inhibited (as described) in 5 of 10 mice.
The receptor binding and biological properties of the following compounds of this invention are illustrated in Tables 1 and 2 utilizing the previously described opiate binding, hot plate, tail flick, writhing assay, cholera test or hypertensive test. The standard screening dose for the hot plate test of Table 1 was 10 mg/kg i.v. and for the writhing assay was 10 mg/kg s.c. and p.o.

[1] = test system: spontaneous hypertensive rats (SHR); assay: Hypertensive test in spontaneous hypertensive rats (SHR); assay type: in vivo, rat; set-up: key to Antihypertensive Properties, Result: Active: Any compound that resulted in a decrease in arterial blood pressure of 20 mm Hg or greater was considered active; details: Table 3; 10 mg/kg intravenously, one unanesthetized male SHR
Protocol: A compound's ability to act as an antihypertensive agent was determined using spontaneous hypertensive rats (SHR). Male SHR were maintained in-house for 1 or more weeks before use and were between 11 and 16 weeks old. The test compound was administered intravenously and the initial mean arterial blood pressure was measured directly via an arterial catheter implanted immediately before administration of the compound. Blood pressure readings were made 5, 10 and 15 minutes after administration of the compound. […] Statistical comparisons were made using the unpaired student's test.
The following compounds of the invention were evaluated for their antihypertensive properties using the spontaneous hypertensive rat (SHR). […] The SHR test was essentially that described earlier. Each compound listed in Table 3, was administered intravenously to one unanesthetized, male, spontaneously hypertensive rat; the dosage was 10 mg/kg.

## 2,6-dimethyltyrosyl-N-(3-cyclohexylpropyl)-D-alaninamide, (2-methylpropyl)carbonate (ester) [Example 27]
Opiate receptors
  IC50: 2.7 nM
mice
  Writhing Mouse Oral, effect of the screening dose: Active
  Writhing Mouse Subc., effect of the screening dose: Active

## 2,6-dimethyltyrosyl-N-(4-phenylbutyl)-D-alaninamide, hydrochloride [Example 43]
mice
  Writhing Mouse Oral, effect of the screening dose: Active
  Writhing Mouse Subc., effect of the screening dose: Active

## 2,6-dimethyltyrosyl-N-[3-(2,6-dimethylphenyl)propyl]-D-alaninamide hydrochloride [Example 38]
Opiate receptors
  IC50: 160 nM
mice
  Writhing Mouse Oral, effect of the screening dose: Active
  Writhing Mouse Subc., effect of the screening dose: Active

## 2,6-dimethyltyrosyl-N-[3-(2,6-dimethylphenyl)propyl]-D-alaninamide, hydrochloride [Example 39]
Opiate receptors
  IC50: 0.5 nM
mice
  Writhing Mouse Oral, effect of the screening dose: Active
  Writhing Mouse Subc., effect of the screening dose: Active

## 2-methyltyrosyl-N-(3-phenylpropyl)-D-alaninamide, hydrochloride [Example 16]
[1]
  Antihypertensive Properties, Result: Active

## Cc1cc(O)cc(C)c1C[C@H](N)C(=O)N[C@H](C)C(=O)NCCCc1ccccc1.Cl [Example 4, 2,6-dimethyltyrosyl-N-(3-phenylpropyl)-D-alaninamide hydrochloride]
Opiate receptors; hydrochloride
  IC50: 50 nM
mice; Mus musculus, sc, subcutaneous, read-out: Writhing Mouse Subc. (ED50)
  ED50: 0.58 mg/kg
mice; oral, hydrochloride
  Writhing Mouse Oral (ED50): 2.39 mg/kg
[1]
  Antihypertensive Properties, Result: Active
